Data as given in US8530648B2, “Diaza-spiro[5.5]undecanes” (Novartis AG, priority 2009, dated 2013).

Experiments:
hOx1R [1] = target: T1, hOx1R (Homo sapiens (Human), UniProt O43613); test: Calcium accumulation in cells (FLIPR), hOx1R; format: cell-based; conditions: for Ki: inhibition of orexin A induced calcium accumulation, Cheng and Prusoff correction; for inhibition at 10 µM: measured at a concentration of 10 μM of compound
Method in brief: (§1)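 Cells expressing human orexin 1 or 2 receptor, serum-deprived overnight, loaded with Fluo-4-AM (2 μM) plus 0.1 mM probenecid, pH 7.4 HEPES buffer with 1% BSA.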

hOx2R [2] = target: T2, hOx2R (Homo sapiens (Human), UniProt O43614); test: Calcium accumulation in cells (FLIPR), hOx2R; format: cell-based; conditions: for Ki: inhibition of orexin A induced calcium accumulation, Cheng and Prusoff correction; for inhibition at 10 µM: measured at a concentration of 10 μM of compound
T2 sequence (O43614 whole entry): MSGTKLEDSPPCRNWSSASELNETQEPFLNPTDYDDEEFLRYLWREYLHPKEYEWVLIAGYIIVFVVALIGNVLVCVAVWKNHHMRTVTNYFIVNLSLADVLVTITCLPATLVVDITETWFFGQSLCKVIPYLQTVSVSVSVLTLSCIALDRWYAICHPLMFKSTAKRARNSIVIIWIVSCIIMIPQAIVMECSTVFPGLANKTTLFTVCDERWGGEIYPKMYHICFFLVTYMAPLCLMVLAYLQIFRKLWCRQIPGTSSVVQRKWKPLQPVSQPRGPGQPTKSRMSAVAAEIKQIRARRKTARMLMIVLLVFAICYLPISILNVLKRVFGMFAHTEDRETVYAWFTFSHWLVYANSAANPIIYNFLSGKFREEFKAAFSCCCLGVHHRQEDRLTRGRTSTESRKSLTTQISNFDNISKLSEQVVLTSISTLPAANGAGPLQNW
Method in brief: as §1

hOx1R [3] = target: T1, hOx1R; test: Radioligand binding assay, [3H]-SB649868, hOx1R; conditions: radioligand [3H]-SB649868, competition
Protocol: (§2) For crude cell membrane preparations, cells (CHO, Chinese hamster ovary or HEK, human embryonic kidney) expressing human orexin 1 or human orexin 2 receptors, were washed with HEPES (10 mM, pH 7.5), scraped off the culture plates with the same buffer, and centrifuged at 4° C. for 5 min at 2500×g. The cell pellet was either stored at −80° C. or used directly. Before the experiments, cell membranes were re-suspended in binding assay buffer (10 mM HEPES, 0.5% (w/v) bovine serum albumin, pH 7.5) by homogenisation with a Polytron homogeniser at 50 Hz for 20 s. Cell membranes were also used as made available by commercial providers.
(§3) Bound radioactivity was measured, and data were analysed with the program XLFIT or Graphpad Prism. Protein concentration was determined according to the Bradford/BioRad Protein Assay Kit.
(§4) In competition experiments, cell homogenates (150 μl) were incubated in assay buffer (10 mM HEPES, pH 7.5, 0.5% (w/v) bovine serum albumin, 5 mM MgCl2, 1 mM CaCl2, and tween 0.05%) for 1 h at room temperature with about 1 nM of the radioligand [^3H]-SB649868, 66 Ci/mmole, 50 μl), and with various concentrations of compounds of the invention (50 μl) in triplicates; non-specific binding was determined in the presence of almorexant (10 μM).

hOx2R [4] = target: T2, hOx2R; test: Radioligand binding assay, [3H]-SB649868, hOx2R; conditions: radioligand [3H]-SB649868, competition
Protocol: as §2, §3, §4

T1 sequence (O43613 whole entry): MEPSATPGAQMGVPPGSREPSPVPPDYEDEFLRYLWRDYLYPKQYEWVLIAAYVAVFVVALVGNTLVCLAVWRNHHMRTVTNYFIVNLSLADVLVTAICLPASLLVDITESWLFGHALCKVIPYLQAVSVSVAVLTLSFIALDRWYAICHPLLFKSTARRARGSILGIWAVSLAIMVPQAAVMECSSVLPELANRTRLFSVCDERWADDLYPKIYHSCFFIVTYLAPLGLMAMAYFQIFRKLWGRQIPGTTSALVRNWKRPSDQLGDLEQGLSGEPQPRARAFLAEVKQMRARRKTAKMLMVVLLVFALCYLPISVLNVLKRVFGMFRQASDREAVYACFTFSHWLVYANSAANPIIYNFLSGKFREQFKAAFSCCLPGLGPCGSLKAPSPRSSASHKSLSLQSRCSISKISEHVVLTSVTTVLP

Row | Structure (SMILES) | Ki (hOx1R [1]) | Ki (hOx2R [2]) | Kd (hOx1R [3]) | Kd (hOx2R [4]) | inhibition at 10 µM (hOx1R [1]) | inhibition at 10 µM (hOx2R [2])
1 | O=C1N(Cc2cccc(-n3ccnn3)c2)CCCC12CCN(c1cnc3ccccc3n1)CC2 [Example 46, 2-(3-(1H-1,2,3-triazol-1-yl)benzyl)-9-(quinoxalin-2-yl)-2,9-diazaspiro[5.5]undecan-1-one] | 1.09 µM | 0.247 µM | 1.29 µM | 0.473 µM | – | –
2 | O=C1N(Cc2cccc3nonc23)CCCC12CCN(c1cnc3ccccc3n1)CC2 [Example 77, 2-(benzo[c][1,2,5]oxadiazol-4-ylmethyl)-9-(quinoxalin-2-yl)-2,9-diazaspiro[5.5]undecan-1-one] | 1.15 µM | 0.098 µM | 2.33 µM | 1.47 µM | – | –
3 | Cc1noc(-c2cccc(CN3CCCC4(CCN(c5cnc6ccccc6n5)CC4)C3=O)c2)n1 [Example 104, 2-(3-(3-methyl-1,2,4-oxadiazol-5-yl)benzyl)-9-(quinoxalin-2-yl)-2,9-diazaspiro[5.5]undecan-1-one] | – | 0.106 µM | – | 1.37 µM | – | –
4 | O=C1N(Cc2cc(F)cc3c2OCOC3)CCCC12CCN(c1cnc3ccccc3n1)CC2 [Example 120, 2-((6-fluoro-4H-benzo[d][1,3]dioxin-8-yl)methyl)-9-(quinoxalin-2-yl)-2,9-diazaspiro[5.5]undecan-1-one] | 0.7 µM | 0.125 µM | – | – | – | –
5 | Cc1cc(C)cc(CN2CCCC3(CCN(c4cnc5ccccc5n4)CC3)C2=O)c1 [Example 16, 2-(3,5-dimethylbenzyl)-9-(quinoxalin-2-yl)-2,9-diazaspiro[5.5]undecan-1-one] | 1.19 µM | 0.113 µM | – | – | – | –
6 | COc1ccc2[nH]c(N3CCC4(CCCN(Cc5c[nH]c6ccccc56)C4=O)CC3)nc2c1 [Example 159, 2-((1H-indol-3-yl)methyl)-9-(5-methoxy-1H-benzo[d]imidazol-2-yl)-2,9-diazaspiro[5.5]undecan-1-one] | – | 0.745 µM | – | – | 24% | –
7 | Cc1nnc(-c2ccc(CN3CCCC4(CCN(c5cnc6ccccc6n5)CC4)C3=O)cc2)o1 [Example 109, 2-(4-(5-methyl-1,3,4-oxadiazol-2-yl)benzyl)-9-(quinoxalin-2-yl)-2,9-diazaspiro[5.5]undecan-1-one] | 3.14 µM | 1.24 µM | – | – | – | –
8 | Cc1cc(CN2CCCC3(CCN(c4cnc5ccccc5n4)CC3)C2=O)on1 [Example 105, 2-((3-methylisoxazol-5-yl)methyl)-9-(quinoxalin-2-yl)-2,9-diazaspiro[5.5]undecan-1-one] | – | 1.38 µM | – | – | 47% | –
9 | Cc1oc(-c2ccoc2)nc1CN1CCCC2(CCN(c3cnc4ccccc4n3)CC2)C1=O [Example 116, 2-((2-(furan-3-yl)-5-methyloxazol-4-yl)methyl)-9-(quinoxalin-2-yl)-2,9-diazaspiro[5.5]undecan-1-one] | 3.79 µM | – | – | – | – | 53%
10 | O=C1N(Cc2cccc(Cl)c2)CCCC12CCN(c1nc3ccccc3[nH]1)CC2 [Example 28, 9-(1H-benzo[d]imidazol-2-yl)-2-(3-chlorobenzyl)-2,9-diazaspiro[5.5]undecan-1-one] | – | 0.16 µM | – | – | 33% | –
11 | O=C1N(Cc2c[nH]c3ccccc23)CCCC12CCN(c1cc(-c3ccccc3)ncn1)CC2 [Example 165, 2-((1H-indol-3-yl)methyl)-9-(6-phenylpyrimidin-4-yl)-2,9-diazaspiro[5.5]undecan-1-one] | 0.468 µM | 0.115 µM | – | – | – | –
12 | COCc1cccc(CN2CCCC3(CCN(c4cnc5ccccc5n4)CC3)C2=O)c1 [Example 80, 2-(3-(methoxymethyl)benzyl)-9-(quinoxalin-2-yl)-2,9-diazaspiro[5.5]undecan-1-one] | 2.99 µM | 0.096 µM | – | – | – | –
13 | CC(C)c1nc(CN2CCCC3(CCN(c4cnc5ccccc5n4)CC3)C2=O)co1 [Example 176, 2-((2-isopropyloxazol-4-yl)methyl)-9-(quinoxalin-2-yl)-2,9-diazaspiro[5.5]undecan-1-one] | – | – | – | – | < 10% | < 10%
14 | COc1ccccc1-n1ccnc1CN1CCCC2(CCN(c3cnc4ccccc4n3)CC2)C1=O [Example 112, 2-((1-(2-methoxyphenyl)-1H-imidazol-2-yl)methyl)-9-(quinoxalin-2-yl)-2,9-diazaspiro[5.5]undecan-1-one] | 3.52 µM | 1.6 µM | – | – | – | –

The remaining compounds from weak to strong by Ki (hOx2R [2]), led by results:

Row | Ki (hOx1R [1]) | Ki (hOx2R [2]) | Kd (hOx1R [3]) | Kd (hOx2R [4]) | inhibition at 10 µM (hOx1R [1]) | inhibition at 10 µM (hOx2R [2]) | Structure (SMILES)
15 | 1.29 µM | 0.085 µM | 3.82 µM | 0.559 µM | – | – | COc1cccc(-n2cncc2CN2CCCC3(CCN(c4cnc5ccccc5n4)CC3)C2=O)c1 [Example 111, 2-((1-(3-methoxyphenyl)-1H-imidazol-5-yl)methyl)-9-(quinoxalin-2-yl)-2,9-diazaspiro[5.5]undecan-1-one]
16 | 1.36 µM | 0.082 µM | 3.5 µM | 0.63 µM | – | – | O=C1N(Cc2cccc3nsnc23)CCCC12CCN(c1cnc3ccccc3n1)CC2 [Example 113, 2-(benzo[c][1,2,5]thiadiazol-4-ylmethyl)-9-(quinoxalin-2-yl)-2,9-diazaspiro[5.5]undecan-1-one]
17 | 0.967 µM | 0.073 µM | > 10 µM | 0.16 µM | – | – | Cc1ccc(-n2nccn2)cc1CN1CCCC2(CCN(c3cnc4ccccc4n3)CC2)C1=O [Example 128, 2-(2-methyl-5-(2H-1,2,3-triazol-2-yl)benzyl)-9-(quinoxalin-2-yl)-2,9-diazaspiro[5.5]undecan-1-one]
18 | 0.571 µM | 0.068 µM | 0.806 µM | 0.111 µM | – | – | O=C1N(Cc2c[nH]c3ccccc23)CCCC12CCN(c1ccc3ccccc3n1)CC2 [Example 160, 2-((1H-indol-3-yl)methyl)-9-(quinolin-2-yl)-2,9-diazaspiro[5.5]undecan-1-one]
19 | 0.438 µM | 0.055 µM | 1.15 µM | 0.219 µM | – | – | Cc1nc(CN2CCCC3(CCN(c4cnc5ccccc5n4)CC3)C2=O)c(-c2cccc(F)c2)s1 [Example 73, 2-((5-(3-fluorophenyl)-2-methylthiazol-4-yl)methyl)-9-(quinoxalin-2-yl)-2,9-diazaspiro[5.5]undecan-1-one]
20 | 0.236 µM | 0.047 µM | 0.205 µM | 0.196 µM | – | – | O=C1CCCC2(CCN(c3cnc4ccccc4n3)CC2)N1Cc1c[nH]c2ccccc12 [Example 43, 1-((1H-indol-3-yl)methyl)-9-(quinoxalin-2-yl)-1,9-diazaspiro[5.5]undecan-2-one]
21 | 0.744 µM | 0.045 µM | 2.1 µM | 0.185 µM | – | – | O=C1N(Cc2ccccc2-c2ccco2)CCCC12CCN(c1cnc3ccccc3n1)CC2 [Example 150, 2-(2-(furan-2-yl)benzyl)-9-(quinoxalin-2-yl)-2,9-diazaspiro[5.5]undecan-1-one]
22 | 0.747 µM | 0.039 µM | 0.307 µM | 0.05 µM | – | – | Cn1cc(CN2C(=O)CCCC23CCN(c2cnc4ccccc4n2)CC3)c2cccnc21 [Example 143, 1-((1-methyl-1H-pyrrolo[2,3-b]pyridin-3-yl)methyl)-9-(quinoxalin-2-yl)-1,9-diazaspiro[5.5]undecan-2-one]
23 | 0.094 µM | 0.007 µM | 0.228 µM | 0.063 µM | – | – | Cc1cnc(-c2cccc(CN3CCCC4(CCN(c5cnc6ccccc6n5)CC4)C3=O)c2)o1 [Example 147, 2-(3-(5-methyloxazol-2-yl)benzyl)-9-(quinoxalin-2-yl)-2,9-diazaspiro[5.5]undecan-1-one]
